Assay results as given in patent US20250002524A1, “CAP ANALOGS HAVING AN ACYCLIC LINKER TO THE GUANINE DERIVATIVE NUCLEOBASE” (CureVac SE, priority 2021, published 2025).
Where two headings read alike, the source gives them in different places.

Molecular target: T1, T7 RNA polymerase (Escherichia phage T7, UniProt P00573)
T1 construct: purchased Thermo Fisher Scientific
Format: biochemical
Excerpt: A DNA sequence was introduced into a modified pUC19 derived vector backbone to comprise a 5′-UTR with a ribozyme cleavage site (the HSD17B4 5′ UTR), a 3′-UTR, a histone-stem-loop structure and a stretch of adenine nucleotides (A100), at the 3′-terminal end. The obtained plasmid DNA was transformed and propagated in bacteria using common protocols and plasmid DNA was extracted, purified, and enzymatically linearized using a restriction enzyme. The obtained linearized plasmid DNA was used for RNA in vitro transcription as outlined next to obtain the mRNA with the sequence shown in SEQ ID NO: 1.
Linearized plasmid DNA template (50 μg/ml) was transcribed at 37° C. for 3-5 hours in 80 mM HEPES/KOH, pH 7.5, 24 mM MgCl2, 2 mM spermidine, 40 mM DTT, 5 U/ml pyrophosphatase (Thermo Fisher Scientific), 200 U/ml RiboLock RNase inhibitor (Thermo Fisher Scientific), 5000 U/ml T7 RNA polymerase (Thermo Fisher Scientific).
The non-modified and modified nucleotide mixture was sequence-optimized (herein referred to as sequence-optimized IVT-mix) preferably in accordance with a procedure as described in WO2015/188933. Example 1. In short, the sequence-optimized IVT-mix comprised the four ribonucleoside triphosphates (NTPs) GTP, ATP, CTP and (modified) UTP in a sequence optimized ratio, wherein the fraction of each of the four ribonucleoside triphosphates in the sequence-optimized IVT-mix corresponded to the fraction of the respective nucleotide in the mRNA molecule to be synthetized, a buffer, a DNA template, and an RNA polymerase. Accordingly, for mRNAs i) and ii) as set out above, the concentrations of the nucleotides were 0.42 mM ATP, 0.57 mM CTP, 0.28 mM UTP, and 0.5 mM GTP (all Thermo Fisher Scientific).
Following RNA in vitro transcription, linear DNA templates were removed by Pulmozyme (Ratiopharm) (2500 U/ml, 3.2 mM CaCl2, 30 min at 37° C.). The obtained mRNAs i) and ii) as well as the mRNAs used in example 3, Table Ex-6; example 4, Table Ex-7; and example 5, FIG. 5 were purified using RP-HPLC (PureMessenger®; according to WO2008/077592). The obtained mRNAs used in example 3, Table Ex-8; example 4, Table Ex-9; and example 5, FIG. 6, were purified using Monarch RNA cleanup kit or Qiagen RNeasy mini kit according to the protocol of the manufacturer and used for dsRNA determination, capping analysis and in vitro expression experiments (example 5).
The capping efficacy can be analyzed by an HPLC assay of a 5′ fragment of mRNAs obtained according to the protocol of example 2. Thus, the peaks obtained in such an HPLC assay are indicative of i) correctly capped mRNA, ii) capped mRNA lacking a single nucleotide G (which is a typical side product if T7 RNA-polymerase is used), iii) uncapped mRNA and iv) further products of unknown structure. 5′ fragments for this kind of analysis are typically 15 to 20 nucleotides in length.
In order to provide fragments of a length of 18 nucleotides (assuming that the Cap-nucleotide is present, the fragment is 18 nucleotides long; for uncapped mRNAs, the fragment is accordingly 17 nucleotides long) for HPLC analysis, the mRNAs i) and ii) obtained in example 2 were first cleaved at the above-mentioned 5′ ribozyme cleavage site using a ribozyme designed to cleave at the relevant position. The ribozyme reaction contained 150 μM of the respective mRNA, 150 μM of the ribozyme, 50 mM NaCl and 0.625 mM EDTA in a total reaction volume of 120 μL. For the annealing reaction, the mixture was incubated in a PCR cycler for 3 min at 95° C., followed by a cool down ramp of 0.1° C. per second to a final temperature of 25° C., with a final incubation of 10 min at 25° C. After addition of 30 μL of a 200 mM MgCl2 solution buffered with 250 mM TRIS/HCl (pH 7.5), the reaction mix was incubated at 25° C. for 1 h. The reaction was stopped by addition of 24 μL of a 250 mM EDTA solution. RNA-only and Ribozyme-only controls were prepared per RNA and ribozyme, respectively.

[1] = Table Ex-8, mRNA capped with 15.23 mM cap0 analog, N1-Methyl-pseudouridine, purified with Monarch RNA cleanup kit or Qiagen RNeasy mini kit
[2] = Table Ex-6, mRNA capped with named cap analog (2.0 mM cap, 0.5 mM GTP), RP-HPLC purified mRNA

T1 sequence (P00573 whole entry): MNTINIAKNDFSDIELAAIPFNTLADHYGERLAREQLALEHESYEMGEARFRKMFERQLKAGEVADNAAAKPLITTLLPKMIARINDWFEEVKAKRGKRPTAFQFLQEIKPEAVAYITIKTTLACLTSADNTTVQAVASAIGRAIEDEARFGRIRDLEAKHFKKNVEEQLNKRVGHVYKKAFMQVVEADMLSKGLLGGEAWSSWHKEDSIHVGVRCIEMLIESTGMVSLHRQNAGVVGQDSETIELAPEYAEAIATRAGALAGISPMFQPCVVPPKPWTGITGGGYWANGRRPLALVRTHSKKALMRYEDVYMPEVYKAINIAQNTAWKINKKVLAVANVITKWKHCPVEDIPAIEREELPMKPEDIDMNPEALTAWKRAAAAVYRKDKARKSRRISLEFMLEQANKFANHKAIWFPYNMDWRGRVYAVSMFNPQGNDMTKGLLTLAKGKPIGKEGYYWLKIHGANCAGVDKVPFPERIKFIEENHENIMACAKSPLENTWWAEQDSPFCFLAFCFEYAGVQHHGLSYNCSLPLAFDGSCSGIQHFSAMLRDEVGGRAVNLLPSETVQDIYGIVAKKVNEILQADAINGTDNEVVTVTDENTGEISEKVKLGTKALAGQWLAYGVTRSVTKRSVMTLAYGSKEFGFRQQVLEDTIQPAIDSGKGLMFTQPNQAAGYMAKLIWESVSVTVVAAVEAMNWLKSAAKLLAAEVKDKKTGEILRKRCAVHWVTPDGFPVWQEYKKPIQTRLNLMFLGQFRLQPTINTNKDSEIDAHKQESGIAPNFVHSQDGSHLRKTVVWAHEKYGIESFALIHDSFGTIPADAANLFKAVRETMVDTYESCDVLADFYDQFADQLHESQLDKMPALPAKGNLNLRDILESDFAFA

**Q.** For `C[n+]1cn(C[S+]([O-])CCCP(=O)(O)OP(=O)([O-])OP(=O)(O)OC[C@H]2O[C@@H](n3cnc4c(=O)[nH]c(N)nc43)[C@H](O)[C@@H]2O)c2nc(N)[nH]c(=O)c21` (stereo partly drawn) [Phosphonate Variant 2], which “Relative peak area Capped RNA minus G” value [1] is on record?
**A.** 6.3%

**Q.** What about the “Relative peak area Correctly capped RNA” value [1] of the same molecule?
**A.** 76.9%

**Q.** What about the “Relative peak area Uncapped RNA” value [1] of the same molecule?
**A.** 15.0%

**Q.** And the “Relative peak area Unidentified peaks” value [1]?
**A.** 1.8%

**Q.** `C[n+]1cn(CC[S+]([O-])CCP(=O)(O)OP(=O)([O-])OP(=O)(O)OC[C@H]2O[C@@H](n3cnc4c(=O)[nH]c(N)nc43)[C@H](O)[C@@H]2O)c2nc(N)[nH]c(=O)c21` (stereo partly drawn) [Phosphonate Variant 5] was tested. Which “Relative peak area Capped RNA minus G” value [1] did it give?
**A.** 4.3%

**Q.** And the “Relative peak area Correctly capped RNA” value [1]?
**A.** 77.1%

**Q.** What about the “Relative peak area Uncapped RNA” value [1] of the same molecule?
**A.** 13.1%

**Q.** What about the “Relative peak area Unidentified peaks” value [1] of the same molecule?
**A.** 5.5%

**Q.** Which “Relative peak area Capped RNA minus G” value [1] does the source give for `C[n+]1cn(CCS(=O)(=O)CCP(=O)(O)OP(=O)([O-])OP(=O)(O)OC[C@H]2O[C@@H](n3cnc4c(=O)[nH]c(N)nc43)[C@H](O)[C@@H]2O)c2nc(N)[nH]c(=O)c21` [Phosphonate Variant 6] here?
**A.** 4.2%

**Q.** And the “Relative peak area Correctly capped RNA” value [1]?
**A.** 75.5%

**Q.** And the “Relative peak area Uncapped RNA” value [1]?
**A.** 14.9%

**Q.** What about the “Relative peak area Unidentified peaks” value [1] of the same molecule?
**A.** 5.4%

**Q.** What does the source list for `C[n+]1cn(CCCS(=O)(=O)CCP(=O)(O)OP(=O)([O-])OP(=O)(O)OC[C@H]2O[C@@H](n3cnc4c(=O)[nH]c(N)nc43)[C@H](O)[C@@H]2O)c2nc(N)[nH]c(=O)c21` [Phosphonate Variant 9]?
**A.** Relative peak area Capped RNA minus G [1]: 4.4%; Relative peak area Correctly capped RNA [1]: 73.4%; Relative peak area Uncapped RNA [1]: 15.7%; Relative peak area Unidentified peaks [1]: 6.5%

**Q.** What does the source list for `C[n+]1cn(CCSCP(=O)(O)OP(=O)([O-])OP(=O)(O)OC[C@H]2O[C@@H](n3cnc4c(=O)[nH]c(N)nc43)[C@H](O)[C@@H]2O)c2nc(N)[nH]c(=O)c21` [Phosphonate Variant 10]?
**A.** Relative peak area Capped RNA minus G [1]: 23.4%; Relative peak area Correctly capped RNA [1]: 63.0%; Relative peak area Uncapped RNA [1]: 8.7%; Relative peak area Unidentified peaks [1]: 4.9%

**Q.** For `C[n+]1cn(CCS(=O)(=O)CP(=O)(O)OP(=O)([O-])OP(=O)(O)OC[C@H]2O[C@@H](n3cnc4c(=O)[nH]c(N)nc43)[C@H](O)[C@@H]2O)c2nc(N)[nH]c(=O)c21` [Phosphonate Variant 12], which “Relative peak area Capped RNA minus G” value [1] is on record?
**A.** 8.6%

**Q.** What about the “Relative peak area Correctly capped RNA” value [1] of the same molecule?
**A.** 75.5%

**Q.** What about the “Relative peak area Uncapped RNA” value [1] of the same molecule?
**A.** 12.2%

**Q.** And the “Relative peak area Unidentified peaks” value [1]?
**A.** 3.7%

**Q.** What does the source list for `C[n+]1cn(CCCOP(=O)(O)OP(=O)([O-])OP(=O)(O)OC[C@H]2O[C@@H](n3cnc4c(=O)[nH]c(N)nc43)[C@H](O)[C@@H]2O)c2nc(N)[nH]c(=O)c21` [Propylene Cap]?
**A.** Relative peak area Capped RNA minus G [1]: 21.6%; Relative peak area Correctly capped RNA [1]: 64.7%; Relative peak area Uncapped RNA [1]: 12.3%; Relative peak area Unidentified peaks [1]: 1.4%

**Q.** How did the “Relative peak area Capped RNA minus G” value [2] turn out when `C[n+]1cn(C2OC(COP(=O)(O)OP(=O)([O-])OP(=O)(O)OCC3OC(n4cnc5c(=O)[nH]c(N)nc54)C(O)C3O)C(O)C2O)c2nc(N)[nH]c(=O)c21` (stereo not drawn) [mCap, m7G(5′)ppp(5′)G, reference compound] was run?
**A.** 8.6%

**Q.** And the “Relative peak area Uncapped RNA” value [2]?
**A.** 19.8%

**Q.** And the “Relative peak area Unidentified peaks” value [2]?
**A.** 10.1%

**Q.** What about the “Relative peak area Correctly capped RNA” value (Table Ex-6, mRNA capped with named cap analog (2.0 mM cap, 0.5 mM GTP), RP-HPLC purified mRNA, 5′ fragment, UV 260 nm) of the same molecule?
**A.** 61.5%

**Q.** What about the “Relative peak area Capped RNA minus G” value [1] of the same molecule?
**A.** 12.2%

**Q.** And the “Relative peak area Correctly capped RNA” value [1]?
**A.** 63.3%

**Q.** What about the “Relative peak area Uncapped RNA” value [1] of the same molecule?
**A.** 20.3%

**Q.** And the “Relative peak area Unidentified peaks” value [1]?
**A.** 4.2%
